Calls of active or inactive are those of the source.
Columns and labels:
HEK293 [1] = assay: cytotoxicity in HEK293T NF-kB-Luc cells, SAR follow-up, cytotoxicity control for NF-kB activator project, cell-based, resazurin fluorescence (AID 493251); format: functional; settings: Homo sapiens
Jurkat = assay: SAR Analysis of small molecule inhibitors of […] specific antigen receptor-induced NF-kB activation in a Jurkat cell line using a luminescence assay - Set 3. [Related pubchem assays (depositor defined):AID435022, AID435025, AID465]; format: functional, cell-based; settings: Homo sapiens
HEK293 [2] = assay: SAR Analysis of small molecule inhibitors of B-cell specific antigen receptor-induced NF-kB activation in a HEK-293T cell line using a luminescence assay - Set 2. [Related pubchem assays (depositor defined):AID435022, AID435025, AID489021]; format: functional, cell-based; settings: Homo sapiens
Cytochrome P450 2C9 = Cytochrome P450 2C9 (Homo sapiens, UniProt P11712)
Cytochrome P450 3A4 = Cytochrome P450 3A4 (Homo sapiens, UniProt P08684);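 further: CYP3A4 tested as one member of a cytochrome P450 panel screen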
[3] = molecular target: T1, Carboxy-terminal domain RNA polymerase II polypeptide A small phosphatase 1 (Homo sapiens, UniProt Q9GZU7); assay: inhibitors of CTDSP1, concentration-response testing, biochemical assay, absorbance-based, actives from ultra-high-throughput screening (AID 540297); format: functional
T1 sequence (Q9GZU7 whole entry): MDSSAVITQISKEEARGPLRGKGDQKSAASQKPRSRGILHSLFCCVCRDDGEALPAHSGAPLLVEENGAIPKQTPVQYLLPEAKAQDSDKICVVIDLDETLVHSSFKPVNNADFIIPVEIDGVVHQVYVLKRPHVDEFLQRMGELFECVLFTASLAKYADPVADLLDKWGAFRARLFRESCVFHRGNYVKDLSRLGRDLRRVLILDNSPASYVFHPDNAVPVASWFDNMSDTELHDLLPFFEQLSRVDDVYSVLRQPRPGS

[4] = molecular target: Dual specificity protein phosphatase 3 (Homo sapiens, UniProt P51452); assay: VHR phosphatase inhibition, dose response, selectivity assay for STEP inhibitor project, biochemical (AID 602374); format: functional; settings: read-out: IC50_Mean
SUMO-activating enzyme [5] = molecular target: T2, SUMO-activating enzyme (Homo sapiens, UniProt Q9UBT2); assay: SUMOylation inhibitor hit validation, confirmation, SUMOylation inhibitor project, biochemical, AlphaScreen (AID 2018); format: functional
SUMO-activating enzyme [6] = molecular target: T2, SUMO-activating enzyme; assay: inhibitors of in vitro SUMOylation cascade, primary screen, biochemical, HTRF, uHTS (AID 2006); format: protein-complex assay
[7] = molecular target: T3, Low molecular weight phosphotyrosine protein phosphatase (Homo sapiens, UniProt P24666); format: functional; settings: read-out: IC50_Mean;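 further: Dose-response confirmation assay measuring inhibition of LMPTP enzyme activity by fluorescence intensity read-out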
T3 sequence (P24666 whole entry): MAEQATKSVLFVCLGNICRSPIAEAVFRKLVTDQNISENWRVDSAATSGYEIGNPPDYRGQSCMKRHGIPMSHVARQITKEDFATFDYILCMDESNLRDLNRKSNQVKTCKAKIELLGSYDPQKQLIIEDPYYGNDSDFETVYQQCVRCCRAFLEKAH

[8] = molecular target: T4, Tyrosine-protein phosphatase non-receptor type 11 (Homo sapiens, UniProt Q06124); assay: SHP2 phosphatase inhibition, dose response, selectivity assay for STEP inhibitor project, biochemical (AID 602367); format: functional; settings: read-out: IC50_Mean
T4 sequence (Q06124 whole entry): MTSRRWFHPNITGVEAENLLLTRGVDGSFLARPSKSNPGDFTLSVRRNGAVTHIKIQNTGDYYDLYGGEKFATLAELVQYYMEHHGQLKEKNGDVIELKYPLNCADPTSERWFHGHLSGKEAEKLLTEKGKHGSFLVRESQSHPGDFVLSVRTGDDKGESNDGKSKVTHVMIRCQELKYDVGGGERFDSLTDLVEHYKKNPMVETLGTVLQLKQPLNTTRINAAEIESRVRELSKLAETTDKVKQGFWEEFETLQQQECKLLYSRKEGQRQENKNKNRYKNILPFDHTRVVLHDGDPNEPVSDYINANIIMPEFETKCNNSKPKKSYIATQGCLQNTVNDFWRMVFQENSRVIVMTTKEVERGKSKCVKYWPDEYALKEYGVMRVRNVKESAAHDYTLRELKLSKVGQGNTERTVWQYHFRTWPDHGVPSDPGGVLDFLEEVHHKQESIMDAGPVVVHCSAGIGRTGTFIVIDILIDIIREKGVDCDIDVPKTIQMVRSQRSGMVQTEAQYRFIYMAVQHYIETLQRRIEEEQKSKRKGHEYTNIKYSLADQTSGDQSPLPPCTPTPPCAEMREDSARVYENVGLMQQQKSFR

[9] = molecular target: T5, Tyrosine-protein phosphatase non-receptor type 5 (Homo sapiens, UniProt P54829); assay: STEP phosphatase inhibitors, confirmation, biochemical, fluorescence intensity, uHTS hits (AID 602372); format: functional; settings: read-out: IC50_Mean
T5 sequence (P54829 whole entry): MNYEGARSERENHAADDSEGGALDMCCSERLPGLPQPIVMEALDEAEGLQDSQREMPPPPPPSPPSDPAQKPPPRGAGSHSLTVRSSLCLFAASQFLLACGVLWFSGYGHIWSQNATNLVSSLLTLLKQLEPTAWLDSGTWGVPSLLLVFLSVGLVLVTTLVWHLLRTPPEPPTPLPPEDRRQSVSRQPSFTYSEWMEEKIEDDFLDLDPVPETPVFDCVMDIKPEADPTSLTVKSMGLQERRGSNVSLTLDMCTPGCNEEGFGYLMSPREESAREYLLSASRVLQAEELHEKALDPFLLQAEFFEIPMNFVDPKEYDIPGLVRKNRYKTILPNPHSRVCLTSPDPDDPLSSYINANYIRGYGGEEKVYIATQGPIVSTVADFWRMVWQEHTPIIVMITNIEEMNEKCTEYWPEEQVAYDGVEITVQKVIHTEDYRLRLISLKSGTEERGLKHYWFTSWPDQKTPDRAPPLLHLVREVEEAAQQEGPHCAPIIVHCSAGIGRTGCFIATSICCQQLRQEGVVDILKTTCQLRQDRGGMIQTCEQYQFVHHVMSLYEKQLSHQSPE

[10] = molecular target: Induced myeloid leukemia cell differentiation protein Mcl-1 (Homo sapiens, UniProt Q07820); format: functional
[11] = molecular target: Eukaryotic translation initiation factor 4E (Mus musculus, UniProt P63073); assay: eIF4E–eIF4G protein interaction inhibitors, dose response, biochemical, TR-FRET (AID 855); format: functional;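 further: potency for disrupting eIF4E binding to eIF4GI seen as loss of FRET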
Genome polyprotein = Genome polyprotein (Hepatitis C virus, UniProt Q2Q167); assay: HCV core protein dimerization inhibitors, dose response, biochemical, TR-FRET (AID 2159); set-up: species or system Hepacivirus hominis;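 further: blocks dimerization of HCV core protein measured by TR-FRET between tagged core106 pairs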
[12] = molecular target: T6, DNA repair and recombination protein RAD54-like (Homo sapiens, UniProt Q92698); assay: inhibitors of human RAD54 branch migration, confirmation, biochemical, fluorescence, cherry-picked samples, dose series (AID 651657); format: functional
T6 sequence (Q92698 whole entry): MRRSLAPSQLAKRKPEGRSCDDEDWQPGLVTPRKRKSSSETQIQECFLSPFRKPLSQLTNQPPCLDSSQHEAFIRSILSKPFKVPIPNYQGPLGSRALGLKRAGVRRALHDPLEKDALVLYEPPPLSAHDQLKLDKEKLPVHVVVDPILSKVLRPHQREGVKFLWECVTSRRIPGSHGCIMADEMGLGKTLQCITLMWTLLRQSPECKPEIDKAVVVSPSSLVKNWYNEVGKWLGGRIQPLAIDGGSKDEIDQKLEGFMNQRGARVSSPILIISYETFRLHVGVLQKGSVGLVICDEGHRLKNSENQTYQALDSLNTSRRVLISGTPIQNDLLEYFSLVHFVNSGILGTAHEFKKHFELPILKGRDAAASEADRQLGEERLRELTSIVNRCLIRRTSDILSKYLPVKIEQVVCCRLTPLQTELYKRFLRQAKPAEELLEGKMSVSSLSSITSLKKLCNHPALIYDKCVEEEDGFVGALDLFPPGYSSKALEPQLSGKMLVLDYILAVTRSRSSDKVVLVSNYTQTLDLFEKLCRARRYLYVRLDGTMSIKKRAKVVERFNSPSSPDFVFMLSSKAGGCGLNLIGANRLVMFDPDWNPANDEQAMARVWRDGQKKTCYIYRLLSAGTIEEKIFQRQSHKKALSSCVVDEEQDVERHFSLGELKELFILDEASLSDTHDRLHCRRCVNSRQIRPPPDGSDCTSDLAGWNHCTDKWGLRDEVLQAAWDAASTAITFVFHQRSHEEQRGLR

[13] = inhibitors of intracellular T. cruzi replication, confirmation, NIH3T3 host cells, beta-gal luminescence (AID 2044); format: functional, cell-based;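 further: intracellular parasites grown in NIH/3T3 mouse fibroblasts as host cells; luminescent beta-galactosidase reporter signal from transgenic T. cruzi replicating inside host cells; inhibitors lower the luminescence signal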
[14] = insulin promoter down-regulators in MIN6 cells, imaging, high-content screening, mouse beta cells (AID 1628); format: functional
[15] = cytotoxicity in MIN6 insulinoma cells, dose response, cytotoxicity control, cell-based, mouse insulinoma (AID 2122); format: functional;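 further: confirmatory high-throughput counterscreen run to flag cytotoxic compounds; mouse MIN-6 beta cells carrying an insulin promoter eGFP reporter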
Vero = assay: cells; format: functional; settings: Chlorocebus sabaeus
[16] = cytotoxicity toward NIH3T3 fibroblasts, dose response, counter-screen, cell-based, ATP luminescence, mouse fibroblasts (AID 2010); format: functional;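 further: cells exposed to compound for about 90 hours before reading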
[17] = molecular target: T7, Intestinal-type alkaline phosphatase (Homo sapiens, UniProt P09923); assay: human intestinal alkaline phosphatase activators, dose response, biochemical, luminescence, uHTS hits (AID 463120); format: functional
[18] = molecular target: Intestinal-type alkaline phosphatase (Mus musculus, UniProt P24822); assay: PubChem AID 488874; format: functional
[19] = molecular target: T8, Alkaline phosphatase, tissue-nonspecific isozyme (Homo sapiens, UniProt P05186); assay: TNAP enzyme activators, dose response, selectivity assay for human IAP activator project, biochemical, TNAP isozyme, human IAP uHTS hits (AID 488886); format: functional;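 further: potency of compounds raising TNAP activity as a selectivity check on IAP activators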
T8 sequence (P05186 whole entry): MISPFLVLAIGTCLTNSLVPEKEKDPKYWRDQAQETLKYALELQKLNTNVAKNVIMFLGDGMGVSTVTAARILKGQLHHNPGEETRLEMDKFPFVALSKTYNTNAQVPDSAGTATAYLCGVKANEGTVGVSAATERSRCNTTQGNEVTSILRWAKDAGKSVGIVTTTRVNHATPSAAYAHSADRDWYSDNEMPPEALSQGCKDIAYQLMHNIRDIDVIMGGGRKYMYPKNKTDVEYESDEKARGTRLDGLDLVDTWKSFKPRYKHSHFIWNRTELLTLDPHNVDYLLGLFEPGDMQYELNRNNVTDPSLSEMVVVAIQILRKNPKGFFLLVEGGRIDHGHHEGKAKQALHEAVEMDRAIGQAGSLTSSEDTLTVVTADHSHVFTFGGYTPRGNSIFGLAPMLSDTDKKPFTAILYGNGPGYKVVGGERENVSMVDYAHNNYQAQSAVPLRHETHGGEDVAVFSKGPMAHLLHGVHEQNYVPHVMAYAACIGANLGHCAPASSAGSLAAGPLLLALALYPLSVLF

[20] = molecular target: T7, Intestinal-type alkaline phosphatase; assay: human IAP activators, dose response, biochemical, luminescent, uHTS hits, set 2 (AID 488817); format: functional;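 further: potency of activators that raise enzyme activity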
Cytochrome P450 2C19 = Cytochrome P450 2C19 (Homo sapiens, UniProt P33261); assay: Cytochrome panel assay with activity outcomes. Panel member name: p450-cyp2c19 Compounds with AC50 equal or less than 10 uM are considered active; format: functional; settings: read-out: AC50
Cytochrome P450 1A2 = molecular target: T9, Cytochrome P450 1A2 (Homo sapiens, UniProt P05177);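 further: PubChem cytochrome P450 panel assay, CYP1A2 panel member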
T9 sequence (P05177 whole entry): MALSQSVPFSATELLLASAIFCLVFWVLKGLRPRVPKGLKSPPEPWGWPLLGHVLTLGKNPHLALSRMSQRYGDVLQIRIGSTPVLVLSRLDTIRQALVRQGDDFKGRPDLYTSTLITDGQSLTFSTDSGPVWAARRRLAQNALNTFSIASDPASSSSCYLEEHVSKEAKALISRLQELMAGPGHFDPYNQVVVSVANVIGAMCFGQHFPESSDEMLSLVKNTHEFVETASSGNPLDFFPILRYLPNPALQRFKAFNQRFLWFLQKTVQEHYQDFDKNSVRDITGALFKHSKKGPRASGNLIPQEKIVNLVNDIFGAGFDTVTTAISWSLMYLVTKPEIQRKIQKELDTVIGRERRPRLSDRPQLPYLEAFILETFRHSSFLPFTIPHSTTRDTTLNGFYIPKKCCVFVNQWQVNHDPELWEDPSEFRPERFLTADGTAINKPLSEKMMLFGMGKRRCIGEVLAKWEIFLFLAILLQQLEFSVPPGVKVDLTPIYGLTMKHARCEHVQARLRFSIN

T7 sequence (P09923 whole entry): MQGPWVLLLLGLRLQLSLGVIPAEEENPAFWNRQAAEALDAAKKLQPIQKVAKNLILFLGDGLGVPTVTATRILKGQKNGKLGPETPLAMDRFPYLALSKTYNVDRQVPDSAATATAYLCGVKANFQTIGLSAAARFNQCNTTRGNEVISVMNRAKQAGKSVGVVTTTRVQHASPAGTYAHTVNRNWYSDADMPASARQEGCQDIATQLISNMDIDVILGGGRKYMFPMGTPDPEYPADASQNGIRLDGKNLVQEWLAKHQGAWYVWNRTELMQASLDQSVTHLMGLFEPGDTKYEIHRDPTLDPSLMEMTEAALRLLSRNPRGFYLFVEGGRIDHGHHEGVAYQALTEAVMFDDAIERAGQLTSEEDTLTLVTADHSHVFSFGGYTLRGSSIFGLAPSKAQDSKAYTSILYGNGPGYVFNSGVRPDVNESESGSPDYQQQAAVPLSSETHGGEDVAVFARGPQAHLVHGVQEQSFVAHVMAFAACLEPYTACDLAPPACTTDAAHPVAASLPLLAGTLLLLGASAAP
T2 sequence (Q9UBE0 whole entry): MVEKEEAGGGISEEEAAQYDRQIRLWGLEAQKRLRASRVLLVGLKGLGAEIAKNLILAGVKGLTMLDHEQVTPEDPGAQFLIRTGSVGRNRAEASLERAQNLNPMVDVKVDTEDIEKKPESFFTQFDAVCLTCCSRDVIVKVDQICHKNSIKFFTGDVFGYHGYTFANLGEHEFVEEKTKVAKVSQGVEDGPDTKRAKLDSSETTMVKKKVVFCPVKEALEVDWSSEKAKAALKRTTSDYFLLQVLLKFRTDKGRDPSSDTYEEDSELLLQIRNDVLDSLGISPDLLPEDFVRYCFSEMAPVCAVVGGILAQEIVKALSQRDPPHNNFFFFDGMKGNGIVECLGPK
T2 sequence (Q9UBT2 whole entry): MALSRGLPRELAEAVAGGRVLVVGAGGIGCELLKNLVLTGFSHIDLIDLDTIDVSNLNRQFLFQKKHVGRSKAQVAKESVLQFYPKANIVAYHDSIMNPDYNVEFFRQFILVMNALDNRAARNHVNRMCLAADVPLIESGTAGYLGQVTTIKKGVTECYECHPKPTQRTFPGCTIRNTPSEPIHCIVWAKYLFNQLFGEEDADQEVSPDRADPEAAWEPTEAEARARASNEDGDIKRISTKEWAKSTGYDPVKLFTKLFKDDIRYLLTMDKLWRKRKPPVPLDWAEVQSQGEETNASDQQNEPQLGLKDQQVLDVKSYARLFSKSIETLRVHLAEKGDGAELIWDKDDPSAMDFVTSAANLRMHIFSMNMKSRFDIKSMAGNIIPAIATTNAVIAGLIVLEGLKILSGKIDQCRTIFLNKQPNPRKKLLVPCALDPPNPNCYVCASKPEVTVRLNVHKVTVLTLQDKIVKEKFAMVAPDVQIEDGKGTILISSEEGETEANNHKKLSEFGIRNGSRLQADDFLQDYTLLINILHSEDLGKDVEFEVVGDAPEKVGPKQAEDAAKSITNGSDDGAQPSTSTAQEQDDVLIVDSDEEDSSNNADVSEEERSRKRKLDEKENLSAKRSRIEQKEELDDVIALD
Sequence of Cytochrome P450 3A4 (P08684 whole entry, the tested form may be a part): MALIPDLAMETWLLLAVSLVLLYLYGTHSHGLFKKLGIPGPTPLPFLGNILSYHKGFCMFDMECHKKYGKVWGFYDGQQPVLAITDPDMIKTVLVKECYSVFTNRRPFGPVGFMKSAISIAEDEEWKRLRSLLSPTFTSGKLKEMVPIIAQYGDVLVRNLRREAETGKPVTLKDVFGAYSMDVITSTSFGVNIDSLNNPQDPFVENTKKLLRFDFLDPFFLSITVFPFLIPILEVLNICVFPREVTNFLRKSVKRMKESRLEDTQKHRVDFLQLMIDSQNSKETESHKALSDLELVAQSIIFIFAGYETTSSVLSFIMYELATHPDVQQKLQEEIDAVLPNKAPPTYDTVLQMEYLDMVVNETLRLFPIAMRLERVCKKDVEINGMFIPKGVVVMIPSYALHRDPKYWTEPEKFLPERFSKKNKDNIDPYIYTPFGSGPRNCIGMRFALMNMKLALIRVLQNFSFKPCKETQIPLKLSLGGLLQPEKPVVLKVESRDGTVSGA
Sequence of Intestinal-type alkaline phosphatase (Mus musculus, UniProt P24822) (P24822 whole entry): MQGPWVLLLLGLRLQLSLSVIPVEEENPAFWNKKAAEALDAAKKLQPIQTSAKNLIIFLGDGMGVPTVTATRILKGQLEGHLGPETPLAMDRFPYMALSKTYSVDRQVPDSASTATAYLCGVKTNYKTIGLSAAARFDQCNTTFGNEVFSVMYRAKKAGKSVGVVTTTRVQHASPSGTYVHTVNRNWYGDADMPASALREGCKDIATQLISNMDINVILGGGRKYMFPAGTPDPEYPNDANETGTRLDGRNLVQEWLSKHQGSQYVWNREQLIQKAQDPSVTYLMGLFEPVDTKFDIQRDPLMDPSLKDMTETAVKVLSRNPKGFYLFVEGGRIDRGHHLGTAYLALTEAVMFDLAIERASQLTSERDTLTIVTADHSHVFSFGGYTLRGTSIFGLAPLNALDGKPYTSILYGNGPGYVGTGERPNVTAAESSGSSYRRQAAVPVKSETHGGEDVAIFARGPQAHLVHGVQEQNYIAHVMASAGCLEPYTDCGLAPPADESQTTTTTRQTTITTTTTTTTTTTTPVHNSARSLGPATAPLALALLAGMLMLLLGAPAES
Sequence of Cytochrome P450 2C9 (P11712 whole entry): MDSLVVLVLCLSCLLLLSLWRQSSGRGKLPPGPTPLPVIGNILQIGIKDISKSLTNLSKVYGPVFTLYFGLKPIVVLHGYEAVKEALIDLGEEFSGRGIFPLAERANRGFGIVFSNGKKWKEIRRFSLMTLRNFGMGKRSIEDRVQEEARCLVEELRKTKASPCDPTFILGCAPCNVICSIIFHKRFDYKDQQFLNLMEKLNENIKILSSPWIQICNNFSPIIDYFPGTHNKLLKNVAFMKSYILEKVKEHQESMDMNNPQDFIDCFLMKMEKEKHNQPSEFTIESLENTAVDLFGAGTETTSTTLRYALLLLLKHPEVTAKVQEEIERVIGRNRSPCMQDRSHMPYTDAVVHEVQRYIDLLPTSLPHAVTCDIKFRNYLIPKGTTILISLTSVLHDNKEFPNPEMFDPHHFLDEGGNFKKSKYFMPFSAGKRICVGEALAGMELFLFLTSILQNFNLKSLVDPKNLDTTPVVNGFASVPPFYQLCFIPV
Sequence of Eukaryotic translation initiation factor 4E (P63073 whole entry): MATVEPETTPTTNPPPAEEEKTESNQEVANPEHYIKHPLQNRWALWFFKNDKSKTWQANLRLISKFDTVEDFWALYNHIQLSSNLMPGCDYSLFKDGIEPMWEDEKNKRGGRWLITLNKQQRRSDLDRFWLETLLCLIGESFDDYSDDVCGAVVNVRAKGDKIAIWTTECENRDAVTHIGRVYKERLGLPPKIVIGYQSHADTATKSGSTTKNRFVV
Sequence of Genome polyprotein (Q2Q167 whole entry): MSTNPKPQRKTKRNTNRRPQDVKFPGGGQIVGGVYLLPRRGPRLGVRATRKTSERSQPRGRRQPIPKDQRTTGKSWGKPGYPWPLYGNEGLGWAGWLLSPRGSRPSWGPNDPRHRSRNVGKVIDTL
Sequence of Cytochrome P450 2C19 (P33261 whole entry): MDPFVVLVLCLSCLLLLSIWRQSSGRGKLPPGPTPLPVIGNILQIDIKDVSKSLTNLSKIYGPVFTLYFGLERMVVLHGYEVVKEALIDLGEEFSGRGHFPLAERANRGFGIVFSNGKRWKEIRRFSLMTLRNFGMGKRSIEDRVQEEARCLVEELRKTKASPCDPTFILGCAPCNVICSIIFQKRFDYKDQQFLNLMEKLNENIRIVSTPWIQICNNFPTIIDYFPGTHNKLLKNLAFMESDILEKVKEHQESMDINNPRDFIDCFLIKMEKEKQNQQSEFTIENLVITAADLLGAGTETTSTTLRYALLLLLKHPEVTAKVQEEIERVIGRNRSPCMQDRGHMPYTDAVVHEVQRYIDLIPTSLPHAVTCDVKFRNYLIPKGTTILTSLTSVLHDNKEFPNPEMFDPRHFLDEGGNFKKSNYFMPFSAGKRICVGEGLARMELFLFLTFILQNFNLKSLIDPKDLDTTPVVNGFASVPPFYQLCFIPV
Sequence of Induced myeloid leukemia cell differentiation protein Mcl-1 (Q07820 whole entry): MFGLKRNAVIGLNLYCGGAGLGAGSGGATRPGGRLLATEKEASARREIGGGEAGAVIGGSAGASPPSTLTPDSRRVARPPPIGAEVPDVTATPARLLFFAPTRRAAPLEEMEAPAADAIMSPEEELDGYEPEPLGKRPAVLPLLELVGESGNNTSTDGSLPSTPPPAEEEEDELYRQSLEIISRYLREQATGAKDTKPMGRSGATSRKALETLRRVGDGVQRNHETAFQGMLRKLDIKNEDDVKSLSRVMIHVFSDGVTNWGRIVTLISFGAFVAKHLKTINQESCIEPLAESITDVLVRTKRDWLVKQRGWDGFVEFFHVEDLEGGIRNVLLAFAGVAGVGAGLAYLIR
Sequence of Dual specificity protein phosphatase 3 (P51452 whole entry): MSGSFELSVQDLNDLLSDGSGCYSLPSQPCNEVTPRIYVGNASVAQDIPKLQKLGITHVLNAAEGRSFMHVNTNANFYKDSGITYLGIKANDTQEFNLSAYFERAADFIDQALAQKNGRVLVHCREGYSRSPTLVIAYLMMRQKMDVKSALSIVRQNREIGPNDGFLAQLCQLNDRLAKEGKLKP

CCOc1ccc(-c2nc(CSCC(=O)NC(C)CC)c(C)o2)cc1 (centres undefined)
IC50 (HEK293 [1]): 74.6 µM (inactive)
IC50 (Jurkat): > 80 µM (inactive)
IC50 (HEK293 [2]): 35.7 µM (inactive)

COc1ccc2c(=O)c(-c3ccccc3)c(C)oc2c1
AC50 (Cytochrome P450 2C9): 10 µM (inconclusive)
AC50 (Cytochrome P450 3A4): inconclusive

N=C1S/C(=C\c2ccc(O)cc2)C(=O)N1c1ccc(F)cc1
IC50 [3]: 5.84 µM (active)
IC50 [4]: 2.29 µM (active)
IC50 (SUMO-activating enzyme [5]): 4.87 µM (active)
IC50 (SUMO-activating enzyme [6]): 23.9 µM (active)
IC50 [7]: 32.9 µM (inactive)
IC50 [8]: 2.2 µM (active)
IC50 [9]: 14.1 µM (active)

CC(=O)c1sc2nc(CSc3nnnn3-c3ccccc3)[nH]c(=O)c2c1C
IC50 (SUMO-activating enzyme [5]): 6.5 µM (active)
IC50 (SUMO-activating enzyme [6]): 27.9 µM (active)
IC50 [10]: 1.71 µM (active)
IC50 [11]: 50 µM (inactive)
IC50 (Genome polyprotein): > 49.8 µM (not active)

Cc1cc(N2CCN(C)CC2)nc2ccc(NC(S)=NCCN3CCc4ccccc4C3)cc12
AC50 [12]: 20.4 µM (active)
EC50 [13]: 0.683 µM (active)
IC50 [14]: 4.64 µM (active)
IC50 [15]: 4.81 µM (active)
CC50 (Vero): 15.9 µM (active)
EC50 [16]: > 60 µM (not active)

OC(c1nc2cc(F)ccc2[nH]1)C(O)c1nc2cc(F)ccc2[nH]1 (centres undefined)
EC50 [17]: 4.97 µM (active)
IC50 [18]: 58.5 µM (active)
EC50 [19]: 9.85 µM (active)
EC50 [20]: 9.13 µM (active)

O=C(c1ccccc1)c1c[nH]c(C(=O)NCCCN2CCOCC2)c1
AC50 (Cytochrome P450 2C19): 0.0355 µM (inconclusive)
AC50 (Cytochrome P450 1A2): 25.1 µM (inconclusive)
AC50 (Cytochrome P450 3A4): inconclusive

CC(C)Oc1ccc(CCC(=O)NNC(=S)NCc2ccccc2)cc1
EC50 [17]: 18.8 µM (active)
IC50 [18]: 60.3 µM (active)
EC50 [19]: 21.1 µM (active)
EC50 [20]: 21.8 µM (active)
